pIC50: −log10 of the molar value. Like-named read-outs stand apart in the source and are kept apart here.
Tests used:
[1] = target: AR (Homo sapiens (Human), UniProt P10275, T878A); assay: AR binding assay
Description: AR binding assay: To assess AR binding, test compound (top dose 10 μM, 4 fold serial dilution, 8 point dose response) and control (progesterone) were transferred to the assay plate. Cytosol from LnCaP cells was added to the plate, followed by addition of radiolabeled ^3H-R1881 at a final concentration of 1 nM. The plate was sealed, and the reaction was incubated at 300 rpm at 4° C. for 24 hrs. Radioligand absorption buffer (10 mM Tris-HCl, pH 7.4; 1.5 mM EDTA; 1 mM DTT; 0.25% charcoal; 0.0025% dextran) was then added to the plate, mixed, and incubated at 4° C. for 15 minutes. The plate was then centrifuged at 3000 rpm for 30 minutes at 4° C. The supernatant was transferred to the scint-tube and Tri-carb was used for scintillation counting. The data was analyzed using GraphPadPrism v5.0 and binding IC50 was determined as the concentration where 50% inhibition of radioligand binding was observed.

[2] = target: full-length androgen receptor (Homo sapiens (Human), UniProt P10275); assay: AR antagonism assay; format: cell-based; details: HEK293 cells stably expressing full-length androgen receptor, testosterone 1 nM, 20 h; read-out: AR antagonism
Description: AR antagonism assay: To evaluate AR antagonist activity, test compound was added to the assay plate (top dose 10 μM, 3 fold serial dilution, 10 point dose response). HEK293 cells stably expressing the full-length androgen receptor were seeded at a density of 20,000 cells/well in the assay plate. The assay plate was then incubated at room temperature for 10 minutes and at 37° C., 5% CO2 for 20 minutes. Testosterone was added to the assay plate at 1 nM final concentration and the assay plate incubated at 37° C., 5% CO2 for 20 h. After the incubation period, Steady-glo was added to the assay plate and mixed at room temperature for 20 minutes on an orbital shaker, before reading out on the EnVision plate reader.

[3] = target: GR (Homo sapiens (Human), UniProt P04150); assay: GR binding assay; details: cytosol from IM-9 cells, 3H-Dexamethasone 1.5 nM, 4° C. 24 hrs
Description: GR binding assay: To assess GR binding, test compound (top dose 1 μM, 4 fold serial dilution, 8 point dose response) and control (dexamethasone) were transferred to the assay plate. Cytosol from IM-9 cells was added to the plate, followed by addition of radiolabeled ^3H-Dexamethasone at a final concentration of 1.5 nM. The plate was sealed, and the reaction was incubated at 300 rpm at 4° C. for 24 hrs. Radioligand absorption buffer (10 mM Tris-HCl, pH 7.4; 1.5 mM EDTA; 1 mM DTT; 0.25% charcoal; 0.0025% dextran) was then added to the plate, mixed, and incubated at 4° C. for 15 minutes. The plate was then centrifuged at […] for 30 minutes at 4° C. The supernatant was transferred to the scint-tube and Tri-carb was used for scintillation counting. The data was analyzed using GraphPadPrism v5.0 and binding IC50 was determined as the concentration where 50% inhibition of radioligand binding was observed.

[4] = target: ligand binding domain of the glucocorticoid receptor (Homo sapiens (Human), UniProt P04150); assay: GR antagonism assay; format: cell-based; details: HEK293 cells stably expressing GR ligand binding domain, dexamethasone 1.5 nM, 20 h
Description: GR antagonism assay: To evaluate GR antagonist activity, test compound was added to the assay plate (top dose 5 μM, 4 fold serial dilution, 8 point dose response). HEK293 cells stably expressing the ligand binding domain of the glucocorticoid receptor were seeded at a density of 40,000 cells/well in the assay plate. The assay plate was then incubated at 37° C., 5% CO2 for 30 minutes. Dexamethasone was added to the assay plate at 1.5 nM final concentration and the assay plate was incubated at 37° C., 5% CO2 for 20 h. After the incubation period, Dual-glo luciferase reagent was added to the assay plate and mixed at room temperature for 20 minutes on an orbital shaker, before reading out on the EnVision plate reader.

[5] = target: Progesterone PR-B receptors (Homo sapiens (Human), UniProt P06401); assay: PR binding assay; details: human breast carcinoma T47D cells, 0.5 nM [3H]Progesterone, 20 hours at 4° C.
Description: PR binding assay: Progesterone PR-B receptors from human breast carcinoma T47D cells were used in modified Na2HPO4/NaH2PO4 buffer pH 7.4. Compounds were screened at a range of doses (Top dose 40 nM, 4 fold serial dilution, 8 point dose response) and dispensed into the assay plate. Supernatant of 1.2×10^5 cells aliquot were added to the assay plate and incubated with 0.5 nM [^3H]Progesterone for 20 hours at 4° C. Membranes were filtered and washed, the filters were then counted to determine [^3H]Progesterone specifically bound. Binding IC50 was determined as the concentration where 50% inhibition of radioligand binding was observed.

[6] = target: Progesterone Receptor (PR)-LBD (Homo sapiens (Human), UniProt P06401); assay: PR coactivator antagonist assay; format: biochemical; details: 2.5 nM PR-LBD and coactivator peptide, 10 nM progesterone-induced fluorescence response; read-out: PR antagonism
Description: PR coactivator antagonist assay: Test compound (Top dose 10 μM, 4 fold serial dilution, 8 point dose response) and/or vehicle was incubated with the 2.5 nM Progesterone Receptor (PR)-LBD and coactivator peptide for 30 minutes at RT. Determination of the amount of complex formed was read spectrofluorimetrically (excitation: 337 nm, emission: 520/490 nm). Test compound-induced inhibition of 10 nM progesterone-induced fluorescence response by 50 percent or more (≥50%) indicates receptor antagonist activity.

[7] = system: LNCap cells; assay: Cell viability assay, LNCap; format: cell-based; details: Homo sapiens, LNCaP, 144 h, read-out: LNCap (GI50, nM)
Method in brief: (§1)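 Cells seeded overnight at 37 °C, 5% CO2, with a T0 plate read at compound addition; compounds added in DMSO (final 0.1-0.2%) for 6 days. CellTiterGlo luminescence; inhibition calculated relative to day-0 and vehicle signals, giving GI50/IC50 values.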

[8] = system: T47D cells; assay: Cell viability assay, T47D; format: cell-based; details: Homo sapiens, T47D, 144 h, read-out: T47D (GI50, nM)
Method in brief: as §1

[9] = system: IEC6 cells; assay: Cell viability assay, IEC6; format: cell-based; details: Rattus norvegicus, IEC-6, 144 h, read-out: IEC-6 (IC50, nM)
Method in brief: as §1

AR, sequence (P10275 whole entry T878A): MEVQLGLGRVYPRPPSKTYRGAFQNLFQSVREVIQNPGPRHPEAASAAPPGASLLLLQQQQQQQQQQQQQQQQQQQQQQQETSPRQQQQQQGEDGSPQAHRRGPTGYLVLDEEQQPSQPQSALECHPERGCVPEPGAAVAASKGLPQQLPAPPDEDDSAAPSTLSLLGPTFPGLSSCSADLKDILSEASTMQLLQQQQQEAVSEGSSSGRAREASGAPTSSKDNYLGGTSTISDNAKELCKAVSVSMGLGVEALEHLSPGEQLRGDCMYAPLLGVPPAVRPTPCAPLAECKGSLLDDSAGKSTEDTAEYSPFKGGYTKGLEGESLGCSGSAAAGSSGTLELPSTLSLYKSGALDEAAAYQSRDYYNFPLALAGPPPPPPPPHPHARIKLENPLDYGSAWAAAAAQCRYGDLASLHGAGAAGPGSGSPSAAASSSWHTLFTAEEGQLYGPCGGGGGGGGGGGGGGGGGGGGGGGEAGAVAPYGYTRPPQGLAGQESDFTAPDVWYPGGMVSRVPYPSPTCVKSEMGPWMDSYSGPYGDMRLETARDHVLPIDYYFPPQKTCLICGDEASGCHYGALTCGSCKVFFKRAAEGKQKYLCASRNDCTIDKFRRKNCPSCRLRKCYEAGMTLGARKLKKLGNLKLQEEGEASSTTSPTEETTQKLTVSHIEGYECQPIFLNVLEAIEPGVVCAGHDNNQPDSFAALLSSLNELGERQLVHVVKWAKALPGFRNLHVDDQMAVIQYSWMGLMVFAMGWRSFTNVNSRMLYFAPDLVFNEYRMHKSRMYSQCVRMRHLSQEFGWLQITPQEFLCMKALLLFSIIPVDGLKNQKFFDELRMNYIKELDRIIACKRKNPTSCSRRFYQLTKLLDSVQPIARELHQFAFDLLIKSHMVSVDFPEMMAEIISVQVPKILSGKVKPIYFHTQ
ligand binding domain of the glucocorticoid receptor, sequence (P04150 524-758): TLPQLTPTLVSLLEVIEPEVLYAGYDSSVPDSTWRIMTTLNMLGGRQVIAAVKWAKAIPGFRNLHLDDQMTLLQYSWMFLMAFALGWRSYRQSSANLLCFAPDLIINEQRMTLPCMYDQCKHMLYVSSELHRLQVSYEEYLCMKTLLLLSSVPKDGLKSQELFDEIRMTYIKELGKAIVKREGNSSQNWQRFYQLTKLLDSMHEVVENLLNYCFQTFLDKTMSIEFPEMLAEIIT
GR, sequence (P04150 whole entry): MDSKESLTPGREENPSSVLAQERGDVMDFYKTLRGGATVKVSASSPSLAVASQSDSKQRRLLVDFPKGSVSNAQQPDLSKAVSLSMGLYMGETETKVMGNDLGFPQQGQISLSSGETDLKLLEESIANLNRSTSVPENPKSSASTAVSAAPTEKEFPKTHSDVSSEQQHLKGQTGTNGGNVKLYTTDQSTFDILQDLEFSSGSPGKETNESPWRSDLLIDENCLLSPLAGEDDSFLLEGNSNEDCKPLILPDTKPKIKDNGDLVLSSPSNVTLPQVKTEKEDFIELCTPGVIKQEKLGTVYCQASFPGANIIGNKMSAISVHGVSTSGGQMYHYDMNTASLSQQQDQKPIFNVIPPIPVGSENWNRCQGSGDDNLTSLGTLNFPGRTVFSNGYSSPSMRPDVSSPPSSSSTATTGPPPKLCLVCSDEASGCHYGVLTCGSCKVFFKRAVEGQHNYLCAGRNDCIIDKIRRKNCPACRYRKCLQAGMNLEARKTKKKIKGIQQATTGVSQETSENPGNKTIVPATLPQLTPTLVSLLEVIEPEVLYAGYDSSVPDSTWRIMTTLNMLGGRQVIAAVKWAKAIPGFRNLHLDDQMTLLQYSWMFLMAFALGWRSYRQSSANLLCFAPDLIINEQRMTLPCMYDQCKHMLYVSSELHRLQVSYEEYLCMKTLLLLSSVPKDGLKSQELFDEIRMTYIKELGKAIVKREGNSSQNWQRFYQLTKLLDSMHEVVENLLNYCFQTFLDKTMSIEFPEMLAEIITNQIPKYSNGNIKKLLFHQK
Progesterone Receptor (PR)-LBD, sequence (P06401 679-913, species assumed): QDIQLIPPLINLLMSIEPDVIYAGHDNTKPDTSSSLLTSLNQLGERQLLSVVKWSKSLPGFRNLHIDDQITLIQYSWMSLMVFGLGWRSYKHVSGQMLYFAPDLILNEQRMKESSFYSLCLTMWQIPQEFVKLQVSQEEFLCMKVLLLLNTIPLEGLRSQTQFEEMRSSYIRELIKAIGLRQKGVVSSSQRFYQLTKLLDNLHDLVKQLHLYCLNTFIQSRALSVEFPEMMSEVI
full-length androgen receptor, sequence (P10275 whole entry): as the sequence (P10275 whole entry T878A) above, with A878T counted along it
Progesterone PR-B receptors, sequence (P06401 whole entry): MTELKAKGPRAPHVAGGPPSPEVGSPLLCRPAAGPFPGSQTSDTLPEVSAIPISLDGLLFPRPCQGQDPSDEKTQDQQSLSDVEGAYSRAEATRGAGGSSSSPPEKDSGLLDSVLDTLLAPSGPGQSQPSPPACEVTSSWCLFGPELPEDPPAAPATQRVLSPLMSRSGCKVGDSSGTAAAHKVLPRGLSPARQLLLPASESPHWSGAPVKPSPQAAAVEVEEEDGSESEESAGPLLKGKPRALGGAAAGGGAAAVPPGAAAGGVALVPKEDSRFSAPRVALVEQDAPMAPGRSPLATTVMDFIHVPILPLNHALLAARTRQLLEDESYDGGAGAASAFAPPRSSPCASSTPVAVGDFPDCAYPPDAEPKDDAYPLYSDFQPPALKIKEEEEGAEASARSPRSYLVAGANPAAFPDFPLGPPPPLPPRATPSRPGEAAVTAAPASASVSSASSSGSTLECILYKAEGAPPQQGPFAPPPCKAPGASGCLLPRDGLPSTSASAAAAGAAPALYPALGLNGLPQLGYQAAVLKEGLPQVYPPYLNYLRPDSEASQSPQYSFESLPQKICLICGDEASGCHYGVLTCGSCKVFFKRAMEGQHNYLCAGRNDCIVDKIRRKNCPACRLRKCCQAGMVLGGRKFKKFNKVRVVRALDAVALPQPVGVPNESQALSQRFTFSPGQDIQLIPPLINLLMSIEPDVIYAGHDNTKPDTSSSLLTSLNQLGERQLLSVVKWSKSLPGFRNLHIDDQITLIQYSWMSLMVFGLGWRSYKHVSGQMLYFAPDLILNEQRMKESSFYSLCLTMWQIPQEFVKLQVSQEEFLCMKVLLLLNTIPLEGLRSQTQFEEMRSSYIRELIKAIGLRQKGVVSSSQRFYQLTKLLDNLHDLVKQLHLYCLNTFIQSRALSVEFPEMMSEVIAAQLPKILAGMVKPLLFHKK

## CC[C@@]1(O)C(=O)OCc2c1cc1n(c2=O)Cc2cc3c(CN(C)C)c(OC(=O)N4CCN(CCCCCCN(C)c5ccc([C@H]6C[C@@]7(C)[C@@H](CC[C@]7(OC(C)=O)C(C)=O)[C@@H]7CCC8=CC(=O)CCC8=C76)cc5)CC4)ccc3nc2-1 [Compound 5, (S)-10-((dimethylamino)methyl)-4-ethyl-4-hydroxy-3,14-dioxo-3,4,12,14-tetrahydro-1H-pyrano[3′,4′:6,7]indolizino[1,2-b]quinolin-9-yl 4-(6-((4-((8S,11R,13S,14S,17R)-17-acetoxy-17-acetyl-13-methyl-3-oxo-2,3,6,7,8,11,12,13,14,15,16,17-dodecahydro-1H-cyclopenta[a]phenanthren-11-yl)phenyl)(methyl)amino)hexyl)piperazine-1-carboxylate]
[1]
  pIC50: 6.30 to 8.00
[2]
  pIC50: < 6.00
[3]
  pIC50: > 8.00
[4]
  pIC50: 6.30 to 8.00
[5]
  pIC50: > 8.00
[6]
  pIC50: > 8.00
[7]
  GI50: 10 to 500 nM
[8]
  GI50: 10 to 500 nM
[9]
  IC50: 501 to 1000 nM

## CCc1c2c(nc3ccc(OC(=O)N4CCN(C(=O)CCCCCN(C)c5ccc([C@H]6C[C@@]7(C)[C@@H](CC[C@]7(OC(C)=O)C(C)=O)[C@@H]7CCC8=CC(=O)CCC8=C76)cc5)CC4)cc13)-c1cc3c(c(=O)n1C2)COC(=O)[C@]3(O)CC [Compound 3, (S)-4,11-diethyl-4-hydroxy-3,14-dioxo-3,4,12,14-tetrahydro-1H-pyrano[3′,4′:6,7]indolizino[1,2-b]quinolin-9-yl 4-(6-((4-((8S,11R,13S,14S,17R)-17-acetoxy-17-acetyl-13-methyl-3-oxo-2,3,6,7,8,11,12,13,14,15,16,17-dodecahydro-1H-cyclopenta[a]phenanthren-11-yl)phenyl)(methyl)amino)hexanoyl)piperazine-1-carboxylate]
[1]; cytosol from LnCaP cells, 3H-R1881 1 nM, 4° C. 24 hrs, read-out: AR binding
  pIC50: > 8.00
[2]
  pIC50: 6.30 to 8.00
[3]
  pIC50: > 8.00
[4]
  pIC50: 6.30 to 8.00
[5]
  pIC50: > 8.00
[6]
  pIC50: > 8.00
[7]
  GI50: 10 to 500 nM
[8]
  GI50: 10 to 500 nM
[9]
  IC50: 501 to 1000 nM

Reference: US11834458B2, “Anti-cancer nuclear hormone receptor-targeting compounds” (Nuvation Bio Inc., priority 2021, dated 2023)
